In ChEMBL document CHEMBL3526017, “Predicting the drug interaction potential of AMG 853, a dual antagonist of the D-prostanoid and chemoattractant receptor-homologous molecule expressed on T helper 2 cells receptors” (Drug Metab Dispos, 2012):

Legend:
[1] = Drug metabolism in human liver microsomes assessed as […]-mediated compound formation after 15 mins by LC-MS/MS analysis in presence of UDPGA; assay type: ADME; details: 0.25 h
[2] = biological target: UDP-glucuronosyltransferase 1A6 (Homo sapiens, UniProt P19224); assay: (§1) Drug metabolism assessed as human recombinant UGT1A6-mediated (2S,3S,4S,5R,6S)-6-(2-(4-(4-(tert-butylcarbamoyl)-2-(2-chloro-4-cyclopropylphenylsulfonamido)phenoxy)-5-chloro-2-fluorophenyl)acetoxy)-3,4,5-trihydroxytetrahydro-2H-pyran-2-carboxylic acid formation at 10 uM after 30 mins by LC-MS/MS analysis; assay type: ADME; details: recombinant enzyme, 0.5 h
Cytochrome P450 2C8 [3] = biological target: T1, Cytochrome P450 2C8 (Homo sapiens, UniProt P10632); assay: Competitive inhibition of CYP2C8 in human liver microsomes assessed as paclitaxel 6-hydroxylation after 20 mins by LC-MS/MS analysis; assay type: ADME
T1 sequence (P10632 whole entry): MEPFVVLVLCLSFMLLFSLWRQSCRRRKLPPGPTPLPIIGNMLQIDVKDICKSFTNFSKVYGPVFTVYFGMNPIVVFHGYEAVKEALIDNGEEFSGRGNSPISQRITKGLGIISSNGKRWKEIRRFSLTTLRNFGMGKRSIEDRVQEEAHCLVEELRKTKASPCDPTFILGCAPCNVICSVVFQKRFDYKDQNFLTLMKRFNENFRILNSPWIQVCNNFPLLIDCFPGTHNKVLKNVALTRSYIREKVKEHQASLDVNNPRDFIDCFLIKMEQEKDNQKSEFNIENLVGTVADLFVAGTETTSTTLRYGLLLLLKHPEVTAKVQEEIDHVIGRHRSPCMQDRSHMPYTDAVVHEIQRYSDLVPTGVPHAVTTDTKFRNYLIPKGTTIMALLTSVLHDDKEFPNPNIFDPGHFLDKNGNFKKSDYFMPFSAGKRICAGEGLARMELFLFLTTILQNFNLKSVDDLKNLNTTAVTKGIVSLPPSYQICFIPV

Cytochrome P450 2C8 [4] = biological target: T1, Cytochrome P450 2C8; assay: Competitive inhibition of CYP2C8 in human liver microsomes assessed as rosiglitazone demethylation after 20 mins by LC-MS/MS analysis; assay type: ADME
CYP2B6 = CYP2B6 (Homo sapiens, UniProt P20813); assay: Induction of CYP2B6 in human hepatocytes using bupropion as substrate at 0.3 to 30 uM treated every 24 hrs for 2 days measured on day 5 by LC-MS/MS analysis relative to control; assay type: ADME, cell-based, Hepatocyte; details: probe bupropion, read-out: FC
[5] = Cmax in healthy human at 50 mg, po in presence of ketoconazole; assay type: ADME, organism-based; parameters: dose 50 mg, route oral; details: in vivo
[6] = AUC (0 to infinity) in healthy human at 50 mg, po in presence of ketoconazole; assay type: ADME, organism-based; parameters: dose 50 mg, route oral, time infinity; details: plasma
Cytochrome P450 2J2 [7] = biological target: T2, Cytochrome P450 2J2 (Homo sapiens, UniProt P51589); assay: Drug metabolism assessed as recombinant CYP2J2 (unknown origin)-mediated 2-(5-chloro-4-(2-(2-chloro-4-cyclopropylphenylsulfonamido)-4-(1-hydroxy-2-methylpropan-2-ylcarbamoyl)phenoxy)-2-fluorophenyl)acetic acid formation at 10 uM after 30 mins by LC-MS/MS analysis; assay type: ADME; details: recombinant enzyme, 0.5 h
T2 sequence (P51589 whole entry): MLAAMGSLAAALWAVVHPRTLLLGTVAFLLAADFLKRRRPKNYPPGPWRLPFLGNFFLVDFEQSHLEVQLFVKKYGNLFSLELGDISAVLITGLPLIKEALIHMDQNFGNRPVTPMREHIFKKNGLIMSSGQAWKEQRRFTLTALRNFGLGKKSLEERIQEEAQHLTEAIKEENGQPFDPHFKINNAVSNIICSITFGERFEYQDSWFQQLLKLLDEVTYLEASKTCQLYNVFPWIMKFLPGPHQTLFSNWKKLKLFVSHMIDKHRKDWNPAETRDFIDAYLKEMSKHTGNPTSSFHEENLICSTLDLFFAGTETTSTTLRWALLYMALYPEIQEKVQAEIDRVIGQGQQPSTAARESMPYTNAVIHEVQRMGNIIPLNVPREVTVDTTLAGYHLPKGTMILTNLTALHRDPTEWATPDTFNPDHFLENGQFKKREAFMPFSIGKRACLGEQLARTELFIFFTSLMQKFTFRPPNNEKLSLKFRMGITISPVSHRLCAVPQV

Cytochrome P450 2J2 [8] = biological target: T2, Cytochrome P450 2J2; assay: Drug metabolism assessed as recombinant CYP2J2 (unknown origin)-mediated 2-(4-(4-(tert-butylcarbamoyl)-2-(2-chloro-4-(1-hydroxycyclopropyl)phenylsulfonamido)phenoxy)-5-chloro-2-fluorophenyl)acetic acid formation at 10 uM after 30 mins by LC-MS/MS analysis; assay type: ADME; details: recombinant enzyme, 0.5 h
Cytochrome P450 3A4 = Cytochrome P450 3A4 (Homo sapiens, UniProt P08684); assay: Drug metabolism assessed as recombinant CYP3A4 (unknown origin)-mediated 2-(4-(4-(tert-butylcarbamoyl)-2-(2-chloro-4-(1-hydroxycyclopropyl)phenylsulfonamido)phenoxy)-5-chloro-2-fluorophenyl)acetic acid formation at 10 uM after 30 mins by LC-MS/MS analysis; assay type: ADME; details: recombinant enzyme, 0.5 h
Cytochrome P450 3A5 = Cytochrome P450 3A5 (Homo sapiens, UniProt P20815); assay: Drug metabolism assessed as recombinant CYP3A5 (unknown origin)-mediated 2-(4-(4-(tert-butylcarbamoyl)-2-(2-chloro-4-(1-hydroxycyclopropyl)phenylsulfonamido)phenoxy)-5-chloro-2-fluorophenyl)acetic acid formation at 10 uM after 30 mins by LC-MS/MS analysis; assay type: ADME; details: recombinant enzyme, 0.5 h
Cytochrome P450 3A7 = Cytochrome P450 3A7 (Homo sapiens, UniProt P24462); assay: Drug metabolism assessed as recombinant CYP3A7 (unknown origin)-mediated 2-(4-(4-(tert-butylcarbamoyl)-2-(2-chloro-4-(1-hydroxycyclopropyl)phenylsulfonamido)phenoxy)-5-chloro-2-fluorophenyl)acetic acid formation at 10 uM after 30 mins by LC-MS/MS analysis; assay type: ADME; details: recombinant enzyme, 0.5 h
[9] = biological target: T3, UDP-glucuronosyltransferase 1A1 (Homo sapiens, UniProt P22309); assay: as §1, with “UGT1A1-mediated” for “UGT1A6-mediated”; assay type: ADME; details: recombinant enzyme, 0.5 h
T3 sequence (P22309 whole entry): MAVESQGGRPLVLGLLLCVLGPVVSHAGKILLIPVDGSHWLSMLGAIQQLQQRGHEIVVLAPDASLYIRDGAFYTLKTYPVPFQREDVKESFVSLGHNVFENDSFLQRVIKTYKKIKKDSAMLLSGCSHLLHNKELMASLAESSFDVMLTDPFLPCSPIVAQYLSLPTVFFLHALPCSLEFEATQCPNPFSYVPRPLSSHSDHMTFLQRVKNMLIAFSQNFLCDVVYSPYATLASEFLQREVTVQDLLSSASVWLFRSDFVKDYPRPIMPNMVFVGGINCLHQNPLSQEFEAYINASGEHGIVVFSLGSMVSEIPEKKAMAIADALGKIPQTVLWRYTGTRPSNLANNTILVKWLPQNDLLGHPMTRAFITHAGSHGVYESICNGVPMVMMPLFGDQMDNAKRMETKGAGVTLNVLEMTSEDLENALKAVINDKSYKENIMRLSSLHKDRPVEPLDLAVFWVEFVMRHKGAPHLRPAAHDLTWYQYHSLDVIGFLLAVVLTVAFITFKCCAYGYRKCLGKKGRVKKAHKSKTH

[10] = biological target: UDP-glucuronosyltransferase 2B15 (Homo sapiens, UniProt P54855); assay: as §1, with “UGT2B15-mediated” for “UGT1A6-mediated”; assay type: ADME; details: recombinant enzyme, 0.5 h
Chain of UDP-glucuronosyltransferase 2B15 (P54855 whole entry): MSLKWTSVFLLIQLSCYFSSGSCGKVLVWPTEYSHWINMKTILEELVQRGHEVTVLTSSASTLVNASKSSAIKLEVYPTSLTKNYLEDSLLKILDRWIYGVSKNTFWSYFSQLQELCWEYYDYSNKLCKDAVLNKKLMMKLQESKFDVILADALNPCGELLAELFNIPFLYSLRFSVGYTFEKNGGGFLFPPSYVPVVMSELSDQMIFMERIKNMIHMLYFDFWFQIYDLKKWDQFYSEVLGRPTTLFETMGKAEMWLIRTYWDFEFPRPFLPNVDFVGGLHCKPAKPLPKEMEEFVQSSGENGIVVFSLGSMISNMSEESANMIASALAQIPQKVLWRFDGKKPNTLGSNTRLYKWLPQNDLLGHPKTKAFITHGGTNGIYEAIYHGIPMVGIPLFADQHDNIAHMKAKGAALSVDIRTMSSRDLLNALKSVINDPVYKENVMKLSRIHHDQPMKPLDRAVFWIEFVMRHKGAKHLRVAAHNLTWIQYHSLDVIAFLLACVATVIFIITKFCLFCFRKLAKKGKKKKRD

Chain of UDP-glucuronosyltransferase 1A6 (P19224 whole entry): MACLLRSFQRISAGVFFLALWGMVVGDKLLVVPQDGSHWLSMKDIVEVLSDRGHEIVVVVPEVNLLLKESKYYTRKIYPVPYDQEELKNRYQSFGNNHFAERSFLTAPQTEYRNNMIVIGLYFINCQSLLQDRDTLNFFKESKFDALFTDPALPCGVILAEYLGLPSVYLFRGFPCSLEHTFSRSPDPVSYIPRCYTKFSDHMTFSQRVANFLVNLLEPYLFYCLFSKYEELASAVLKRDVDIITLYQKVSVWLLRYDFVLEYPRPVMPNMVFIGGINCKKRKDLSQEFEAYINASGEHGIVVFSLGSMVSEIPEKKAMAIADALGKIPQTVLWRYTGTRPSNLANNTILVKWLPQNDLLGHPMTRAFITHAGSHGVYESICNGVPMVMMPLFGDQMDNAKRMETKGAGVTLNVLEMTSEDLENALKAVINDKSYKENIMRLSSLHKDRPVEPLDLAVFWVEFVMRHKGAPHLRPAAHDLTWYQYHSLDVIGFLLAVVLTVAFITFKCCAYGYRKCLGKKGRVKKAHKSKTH
Chain of Cytochrome P450 3A4 (P08684 whole entry): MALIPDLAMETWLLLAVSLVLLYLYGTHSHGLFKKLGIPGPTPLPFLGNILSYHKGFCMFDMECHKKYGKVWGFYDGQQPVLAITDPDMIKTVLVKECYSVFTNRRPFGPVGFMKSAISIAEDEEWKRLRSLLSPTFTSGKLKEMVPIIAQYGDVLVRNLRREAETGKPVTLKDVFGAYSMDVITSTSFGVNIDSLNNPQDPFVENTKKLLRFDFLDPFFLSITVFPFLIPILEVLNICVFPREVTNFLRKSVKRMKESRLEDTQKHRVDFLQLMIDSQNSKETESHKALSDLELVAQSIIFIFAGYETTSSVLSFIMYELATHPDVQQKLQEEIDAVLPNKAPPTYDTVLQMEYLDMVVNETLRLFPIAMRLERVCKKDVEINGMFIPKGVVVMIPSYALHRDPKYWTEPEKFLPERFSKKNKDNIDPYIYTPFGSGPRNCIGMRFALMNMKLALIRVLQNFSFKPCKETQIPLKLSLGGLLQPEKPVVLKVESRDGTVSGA
Chain of Cytochrome P450 3A7 (P24462 whole entry): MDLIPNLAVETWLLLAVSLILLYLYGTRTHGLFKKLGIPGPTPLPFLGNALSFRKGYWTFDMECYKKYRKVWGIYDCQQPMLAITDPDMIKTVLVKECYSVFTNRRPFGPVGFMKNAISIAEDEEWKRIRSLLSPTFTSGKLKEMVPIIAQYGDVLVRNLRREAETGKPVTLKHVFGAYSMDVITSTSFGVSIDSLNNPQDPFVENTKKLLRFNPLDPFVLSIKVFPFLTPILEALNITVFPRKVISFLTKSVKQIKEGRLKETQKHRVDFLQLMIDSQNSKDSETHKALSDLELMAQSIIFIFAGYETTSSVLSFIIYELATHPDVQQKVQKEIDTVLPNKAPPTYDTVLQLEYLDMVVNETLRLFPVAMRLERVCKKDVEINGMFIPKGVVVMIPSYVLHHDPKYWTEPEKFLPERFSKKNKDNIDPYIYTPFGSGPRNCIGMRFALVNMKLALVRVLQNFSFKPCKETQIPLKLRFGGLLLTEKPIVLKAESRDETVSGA
Chain of CYP2B6 (P20813 whole entry): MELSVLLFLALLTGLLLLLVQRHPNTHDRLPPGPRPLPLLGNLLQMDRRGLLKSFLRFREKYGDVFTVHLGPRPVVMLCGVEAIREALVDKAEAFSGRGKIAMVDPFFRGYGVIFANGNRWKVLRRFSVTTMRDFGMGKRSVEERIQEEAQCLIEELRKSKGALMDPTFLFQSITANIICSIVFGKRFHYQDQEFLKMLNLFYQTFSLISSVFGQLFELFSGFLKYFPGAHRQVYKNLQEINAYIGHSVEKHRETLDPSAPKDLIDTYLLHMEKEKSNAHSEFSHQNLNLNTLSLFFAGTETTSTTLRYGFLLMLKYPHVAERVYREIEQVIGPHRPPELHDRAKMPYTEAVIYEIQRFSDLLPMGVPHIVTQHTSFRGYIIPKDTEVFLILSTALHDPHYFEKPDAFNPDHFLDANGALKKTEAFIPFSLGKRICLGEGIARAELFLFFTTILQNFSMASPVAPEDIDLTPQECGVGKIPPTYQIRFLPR
Chain of Cytochrome P450 3A5 (P20815 whole entry): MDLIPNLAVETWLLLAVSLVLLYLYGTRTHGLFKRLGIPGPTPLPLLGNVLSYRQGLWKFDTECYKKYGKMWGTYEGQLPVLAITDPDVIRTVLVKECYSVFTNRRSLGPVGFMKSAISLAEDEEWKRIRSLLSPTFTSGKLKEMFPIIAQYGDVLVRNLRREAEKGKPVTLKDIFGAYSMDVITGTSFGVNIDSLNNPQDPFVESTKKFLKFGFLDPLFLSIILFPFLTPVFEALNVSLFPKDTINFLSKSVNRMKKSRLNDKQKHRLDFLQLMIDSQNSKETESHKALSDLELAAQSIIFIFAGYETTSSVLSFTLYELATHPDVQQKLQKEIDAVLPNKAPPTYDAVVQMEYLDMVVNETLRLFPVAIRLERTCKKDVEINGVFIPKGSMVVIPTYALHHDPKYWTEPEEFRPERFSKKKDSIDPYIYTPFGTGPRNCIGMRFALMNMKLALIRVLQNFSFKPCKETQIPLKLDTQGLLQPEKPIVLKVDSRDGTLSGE

In the case of CC(C)(C)NC(=O)c1ccc(Oc2cc(F)c(CC(=O)O[C@@H]3O[C@H](C(=O)O)[C@@H](O)[C@H](O)[C@H]3O)cc2Cl)c(NS(=O)(=O)c2ccc(C3CC3)cc2Cl)c1, the Drug metabolism [1] is reported as “metabolite_detected”.

For CC(C)(C)NC(=O)c1ccc(Oc2cc(F)c(CC(=O)O)cc2Cl)c(NS(=O)(=O)c2ccc(C3CC3)cc2Cl)c1 [VIDUPIPRANT], the Drug metabolism [2] was “metabolite_not_detected”, the Ki (Cytochrome P450 2C8 [3]) was 1.1 µM and the Ki (Cytochrome P450 2C8 [4]) was 6 µM. For the same molecule, the fold induction at 48 h, up to 30 µM (CYP2B6) was 1.4, the Cmax [5] was 270 ng/mL and the AUC(0-inf) [6] was 800 ng·h/mL. The Drug metabolism (Cytochrome P450 2J2 [7]) was “metabolite_detected”, the Drug metabolism (Cytochrome P450 2J2 [8]) was “metabolite_detected” and the Drug metabolism (Cytochrome P450 3A4) was “metabolite_detected”. The Drug metabolism (Cytochrome P450 3A5) was “metabolite_detected”, the Drug metabolism (Cytochrome P450 3A7) was “metabolite_detected” and the Drug metabolism [9] was “metabolite_detected”. For the same molecule, the Drug metabolism [10] was “metabolite_not_detected”.
